Measured values from patent publication EP0970046B1, “N-HYDROXY-2-(ALKYL, ARYL, OR HETEROARYL SULFANYL, SULFINYL OR SULFONYL)-3-SUBSTITUTED ALKYL, ARYL OR HETEROARYLAMIDES AS MATRIX METALLOPROTEINASE INHIBITORS” (Wyeth Holdings Corporation, priority 1997, dated 1998).
Where two headings read alike, the source gives them in different places. Each block holds one compound with its values, some of them ahead of it.

Experiments:
[1] = biological target: T1, TACE (Homo sapiens, UniProt P78536); assay: Procedure for Measuring TACE Inhibition; type: biochemical; settings: 1 µM; for inhibition at 1 µM: read-out: TACE % inhibition at 1 µM
T1 construct: purchased Immunex
Procedure: Using 96-well black microtiter plates, each well receives a solution composed of 10 µL TACE (Immunex, final concentration 1µg/mL), 70µL Tris buffer, pH 7.4 containing 10% glycerol (final concentration 10 mM), and 10 µL of test compound solution in DMSO (final concentration 1µM, DMSO concentration <1%) and incubated for 10 minutes at room temperature. The reaction is initiated by addition of a fluorescent peptidyl substrate (final concentration 100 µM) to each well and then shaking on a shaker for 5 sec. The reaction is read (excitation 340 nm, emission 420 nm) for 10 min. and the increase in fluorescence over time is plotted as a linear line. The slope of the line is calculated and represents the reaction rate. The linearity of the reaction rate is confirmed (r^2 >0.85). The mean (x±sem) of the control rate is calculated and compared for statistical significance (p<0.05) with drug-treated rates using Dunnett's multiple comparison test.

[2] = biological target: MMP 13 (Homo sapiens, UniProt P45452); assay: MMP 13 inhibition (HTS; method not described); type: biochemical; settings: HTS; for inhibition at 0.036 µM: read-out: MMP 13 % inhibition at 36 nM (HTS); for MMP 13 % inhibition at 36 nM (HTS) / inhibition at 0.036 µM: 36 nM; for inhibition at 0.2 µM: read-out: MMP 13 % inhibition at 0.2 µM (HTS)

T1 sequence (P78536 215-824): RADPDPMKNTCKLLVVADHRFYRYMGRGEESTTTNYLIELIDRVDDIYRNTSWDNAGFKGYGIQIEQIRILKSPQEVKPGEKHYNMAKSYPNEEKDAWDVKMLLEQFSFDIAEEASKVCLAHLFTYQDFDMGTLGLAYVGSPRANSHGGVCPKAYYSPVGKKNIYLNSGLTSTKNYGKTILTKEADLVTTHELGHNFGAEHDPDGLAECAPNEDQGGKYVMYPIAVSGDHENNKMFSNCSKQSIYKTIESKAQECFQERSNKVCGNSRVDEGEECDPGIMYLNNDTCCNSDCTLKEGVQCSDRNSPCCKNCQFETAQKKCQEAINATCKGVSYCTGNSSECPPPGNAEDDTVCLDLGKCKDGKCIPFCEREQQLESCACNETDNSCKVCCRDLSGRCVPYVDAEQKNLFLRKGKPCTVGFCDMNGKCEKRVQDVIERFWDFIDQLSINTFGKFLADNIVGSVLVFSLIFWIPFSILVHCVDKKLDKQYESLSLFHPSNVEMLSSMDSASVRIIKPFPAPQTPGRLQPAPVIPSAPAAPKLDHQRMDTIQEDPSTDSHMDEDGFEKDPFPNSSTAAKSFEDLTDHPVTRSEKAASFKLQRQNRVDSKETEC

Compound: CC(C)CCSC(C)C(=O)NO (stereo not shown) [Example 112, N-Hydroxy-2-(3-methyl-butane-1-sulfanyl)-propionamide]
- TACE % inhibition at 1 µM ([1]; Examples 110-168): 33.7%
- MMP 13 % inhibition at 0.2 µM (HTS) [2]: 50%

Compound: 5-Pyridin-2-yl-thiophene-2-sulfonic acid 4(1-hydroxycarbamoyl-heptylsulfinyl)-hydroxy amide [Example 237]
- TACE % inhibition at 1 µM ([1]; Examples 169-240): 38.2%
- MMP 13 % inhibition at 36 nM (HTS) [2]: 55%

Compound: CCCCCCC(C(=O)NO)S(=O)(=O)c1nc(-c2ccccc2)cs1 (stereo not shown) [Example 182, 2-(4-Phenyl-thiazole-2-sulfonyl)-octanoic acid hydroxyamide]
- inhibition at 1 µM ([1]; Examples 169-240): 28.6%
- inhibition at 0.036 µM [2]: -9%

Compound: CCCCCCC(C(=O)NO)[S+]([O-])c1cccc2cccnc12 (stereo not shown) [Example 190, 2-(Quinoline-8-sulfinyl)-octanoic acid hydroxyamide]
- inhibition at 1 µM ([1]; Examples 169-240): 38.3%
- inhibition at 0.036 µM [2]: -35%

Compound: CCCCCCC(C(=O)NO)S(=O)(=O)c1ncc[nH]1 (stereo not shown) [Example 194, 2-(1H-Imidazole-2-sulfonyl)-octanoic acid hydroxyamide]
- inhibition at 1 µM ([1]; Examples 169-240): 5.4%
- inhibition at 0.036 µM [2]: -17%

Compound: CCCCCCC(C(=O)NO)S(=O)(=O)c1cccc(C(=O)NO)c1 (stereo not shown) [Example 192, 3-(1-Hydroxycarbamoyl-heptylsulfonyl)-benzoic acid hydroxyamide]
- inhibition at 1 µM ([1]; Examples 169-240): 33.2%
- inhibition at 0.036 µM [2]: -32%

Compound: O=C(NO)C(Cc1cnc[nH]1)S(=O)(=O)c1ccc(Cl)cc1 (stereo not shown) [Example 154, 2-(4-chloro-benzenesulfonyl)-N-hydroxy-3-(3H-imidazol-4-yl)-propionamide]
- inhibition at 1 µM ([1]; Examples 110-168): 13.1%
- inhibition at 0.2 µM [2]: 89%

Compound: CCCCCCC(Sc1ccc(NC2CCCC2)cc1)C(=O)NO (stereo not shown) [Example 228, 2-(4-Cyclopentylamino-phenylsulfanyl)-octanoic acid hydroxyamide]
- inhibition at 1 µM ([1]; Examples 169-240): 6.8%
- inhibition at 0.036 µM [2]: 37%

Compound: CCCCCCC(Sc1nc(-c2ccccc2)cs1)C(=O)NO (stereo not shown) [Example 172, 2-(4-Phenyl-thiazole-2-sulfanyl)-octanoic acid hydroxyamide]
- TACE % inhibition at 1 µM ([1]; Examples 169-240): 29.4%
- MMP 13 % inhibition at 36 nM (HTS) [2]: 34%

Compound: CCC(SCC(=O)OC)C(=O)NO (stereo not shown) [Example 119, (1-Hydroxycarbamoyl-propane-1-sulfanyl)-acetic acid methyl ester]
- TACE % inhibition at 1 µM ([1]; Examples 110-168): 7.8%
- MMP 13 % inhibition at 0.2 µM (HTS) [2]: 0%

Compound: CCCCCCC(C(=O)NO)[S+]([O-])CCc1cnccn1 (stereo not shown) [Example 180, 2-(2-Pyrazin-2-yl-ethylsulfinyl)-octanoic acid hydroxyamide]
- inhibition at 1 µM ([1]; Examples 169-240): 34.4%
- inhibition at 0.036 µM [2]: 14%

Compound: 3-Bromo-2-chloro-thiophene-2-sulfonic acid 4-(1-hydroxycarbamoyl-heptylsulfonyl)-hydroxyamide [Example 239]
- TACE % inhibition at 1 µM ([1]; Examples 169-240): 45.9%
- MMP 13 % inhibition at 36 nM (HTS) [2]: 54%

Compound: CCCCCCC(Sc1nnnn1C)C(=O)NO (stereo not shown) [Example 176, 2-(1-Methyl-1H-tetrazol-5-ylsulfanyl)-octanoic acid hydroxyamide]
- inhibition at 1 µM ([1]; Examples 169-240): 26.6%
- inhibition at 0.036 µM [2]: 6%

Compound: (1-Hydroxycarbamoyl-propane-1-sulfinyl)-acetic acid hydroxy amide [Example 121]
- TACE % inhibition at 1 µM ([1]; Examples 110-168): 6.1%
- MMP 13 % inhibition at 0.2 µM (HTS) [2]: 0%

Compound: O=C(CCC(Sc1ccc(Br)cc1)C(=O)NO)NO (stereo not shown) [Example 134, 4-Hydroxycarbamoyl-4-(4-bromo-benzenesulfanyl)-butyric acid hydroxyamide]
- TACE % inhibition at 1 µM ([1]; Examples 110-168): -9.31%
- MMP 13 % inhibition at 0.2 µM (HTS) [2]: 25%

Compound: (1-Hydroxycarbamoyl-propane-1-sulfanyl)-propionic acid hydroxyamide [Example 122]
- TACE % inhibition at 1 µM ([1]; Examples 110-168): 3.1%
- MMP 13 % inhibition at 0.2 µM (HTS) [2]: 0%

Compound: CC(C)C(Sc1ccc2ccccc2c1)C(=O)NO (stereo not shown) [Example 114, N-hydroxy-3-methyl-2-(naphthalen-2-ylsulfanyl)-butyramide]
- inhibition at 1 µM ([1]; Examples 110-168): 0%
- inhibition at 0.2 µM [2]: 0%

Compound: O=C(CCC(C(=O)NO)S(=O)(=O)c1ccc(Br)cc1)NO (stereo not shown) [Example 136, 4-Hydroxycarbamoyl-4-(4-bromo-benzenesulfonyl)-butyric acid hydroxyamide]
- inhibition at 1 µM ([1]; Examples 110-168): 42.7%
- inhibition at 0.2 µM [2]: 89%

Compound: CCCCCCC(C(=O)NO)S(=O)(=O)CC(=O)Nc1ccc2ccccc2c1 (stereo not shown) [Example 197, 2-(Naphthalen-2-ylcarbamoylmethanesulfonyl)-octanoic acid hydroxyamide]
- inhibition at 1 µM ([1]; Examples 169-240): 17.8%
- inhibition at 0.036 µM [2]: -33%

Compound: CC(C)CCS(=O)(=O)C(C)C(=O)NO (stereo not shown) [Example 113, N-Hydroxy-2-(3-methyl-butane-1-sulfonyl)-propionamide]
- inhibition at 1 µM ([1]; Examples 110-168): 13.1%
- inhibition at 0.2 µM [2]: 0%

Compound: N-Hydroxy-3-methyl-2-phenethylsulfinyl-butyramide [Example 117]
- TACE % inhibition at 1 µM ([1]; Examples 110-168): 8.1%
- MMP 13 % inhibition at 0.2 µM (HTS) [2]: 7%

More lines, now with the values ahead:

- TACE % inhibition at 1 µM ([1]; Examples 169-240): 40.3%
- MMP 13 % inhibition at 36 nM (HTS) [2]: 48%
Compound: Benzo[1,2,5]thiadiazole-4-sulfonic acid 4-(1-hydroxycarbamoyl-heptylsulfonyl)-hydroxyamide [Example 240]

- inhibition at 1 µM ([1]; Examples 169-240): 19.5%
- inhibition at 0.036 µM [2]: -14%
Compound: CCCCCCC(Sc1nccs1)C(=O)NO (stereo not shown) [Example 186, 2-(Thiazol-2-ylsulfanyl)-octanoic acid hydroxyamide]

- inhibition at 1 µM ([1]; Examples 110-168): 10.4%
- inhibition at 0.2 µM [2]: 25%
Compound: O=C(NO)C(Cc1ccccc1)[S+]([O-])c1ccc(O)cc1 (stereo not shown) [Example 126, 2-(4-Hydroxybenzenesulfinyl)-N-hydroxy-3-phenyl-propionamide]

- inhibition at 1 µM ([1]; Examples 110-168): 43.5%
- inhibition at 0.2 µM [2]: 15%
Compound: CS(=O)(=O)c1ccc(S(=O)(=O)C(COCc2ccccc2)C(=O)NO)cc1 (stereo not shown) [Example 148, 3-Benzyloxy-N-hydroxy-2-(4-methanesulfonyl-benzenesulfonyl)-propionamide]

- inhibition at 1 µM ([1]; Examples 110-168): 5.93%
- inhibition at 0.2 µM [2]: 6%
Compound: O=C(NO)C(COCc1ccccc1)S(=O)(=O)Cc1ccccc1Cl (stereo not shown) [Example 151, 3-Benzyloxy-N-hydroxy-2-(2-chloro-benzylsulfonyl)-propionamide]

- inhibition at 1 µM ([1]; Examples 110-168): 17.6%
- inhibition at 0.2 µM [2]: 75%
Compound: COc1ccc(S(=O)(=O)C(C)C(=O)NO)cc1 (stereo not shown) [Example 110, N-Hydroxy-2-(4-methoxy-benzenesulfonyl)-propionamide]

- inhibition at 1 µM ([1]; Examples 169-240): 34.4%
- inhibition at 0.036 µM [2]: 29%
Compound: CCCCCCC(Sc1ccc(NC)cc1)C(=O)NO (stereo not shown) [Example 229, 2-(4-Methylamino-phenylsulfanyl)-octanoic acid hydroxyamide]

- TACE % inhibition at 1 µM ([1]; Examples 169-240): 19.8%
- MMP 13 % inhibition at 36 nM (HTS) [2]: 33%
Compound: 2,5-Dichloro-thiophene-3-sulfonic acid 4-(1-hydroxycarbamoyl-heptylsulfanyl)-hydroxyamide [Example 233]

- inhibition at 1 µM ([1]; Examples 169-240): 14.9%
- inhibition at 0.036 µM [2]: -32%
Compound: CCCCCCC(C(=O)NO)S(=O)(=O)c1ccc(CCC(=O)NO)cc1 (stereo not shown) [Example 193, 3-[4-(1-Hydroxycarbamoyl-heptylsulfonyl)-phenyl]-propionic acid hydroxy amide]

- inhibition at 1 µM ([1]; Examples 110-168): 9.1%
- inhibition at 0.2 µM [2]: 0%
Compound: CC(C)C(C(=O)NO)S(=O)(=O)c1ccc2ccccc2c1 (stereo not shown) [Example 116, N-Hydroxy-3-methyl-2-(naphthalen-2-ylsulfonyl)-butyramide]

- inhibition at 1 µM ([1]; Examples 169-240): 7.3%
- inhibition at 0.036 µM [2]: 15%
Compound: CCCCCCC(Sc1ccc(Nc2ccncc2)cc1)C(=O)NO (stereo not shown) [Example 227, 2-[4-(Pyridin-4-ylamino)-phenylsulfanyl]-octanoic acid hydroxyamide]
